One series relates to 4T1 cells. Description: cell uptake experiment, 4T1 cells. Type of series: cell-based, murine. On the procedure: (§1) For cell uptake experiments, 4T1 and A375 cells were incubated with ^68Ga-DOTA-^DTBP-3 at different time points (15, 30, 60 and 120 min), respectively. Then, the cells were washed 3 times with cold PBS, and 0.1 M NaOH solution was used to lyse the cells and collected for γ-count.

The test system of the next series is A375 cells. Put plainly: cell uptake experiment, A375 cells. Type of series: cell-based, human. To be noted: A375 cells (low TIGIT expression), at 0.5 h; time points 15, 30, 60, 120 min; γ-count. How it is done: as §1
For series [1], the system named is 4T1 tumor-bearing BALB/c mice. It counts as in vivo. How it is done: (§2) Female BALB/c mice of 4–5 weeks were purchased from Beijing Biotechnology Co., Ltd. (Beijing, China). The 4T1 murine cancer model was established by the injection of 3 × 10^5 cells/150 μl into the front right limbs of female BALB/c mice. Experiments started when the tumors reached a volume of approximately 250–350 mm^3.
PET images were acquired on a micro-PET scanner (InliView-3000B, Minfound, Hangzhou, China). Mice bearing subcutaneous tumors were anesthetized with isoflurane (1.0–1.5%) and then were injected with about 5.55 MBq of ^68Ga-DOTA-^DTBP-3 via the tail vein. In the blocking group, tumor-bearing BALB/c were pretreated with the 40-fold excess of ^DTBP-3 for 0.5 h, and then injected equal dose of radiotracer with the above groups. Static imaging (15 min) was collected at different time points (0.5, 1 and 2 h post-injection).

Series [2] concerns 4T1 tumor-bearing BALB/c mice. It counts as in vivo. How it is done: as §2
Female BALB/c tumor-bearing mice with subcutaneous 4T1 xenografts were randomly divided into 2 groups (n = 9 for the experimental group, and n = 3 for the blocking group), and then were injected with 3.70 MBq of ^68Ga-DOTA-^DTBP-3 via the tail vein. At different time points (0.5, 1 and 2 h post-injection for the experimental group, 0.5 h post-injection for the blocking group), the mice were euthanized, and the tumor, main organs (muscle, bone, large intestine, small intestine, stomach, kidney, spleen, liver, lung, heart, brain) and blood were weighed and counted by a γ counter. The results are expressed as percentage injected dose per gram of tissue (% ID/g), and the values were calculated based on signal decay correction and normalization to external ^68Ga standards.
This is another data set of the same source.

Where a SMILES comes first, the peptide text is derived from it. [ ]: non-standard residue; d: D form. The star is where a group is joined. DOTA = O=C(O)CN1CCN(CC(=O)O)CCN(CC(=O)*)CCN(CC(=O)O)CC1; Ahx = NCCCCCC(=O)O

`CC(C)C[C@@H](NC(=O)[C@@H](CCCNC(=N)N)NC(=O)[C@@H](Cc1c[nH]cn1)NC(=O)[C@@H](Cc1c[nH]c2ccccc12)NC(=O)[C@@H](Cc1c[nH]cn1)NC(=O)[C@@H](Cc1ccccc1)NC(=O)[C@H](NC(=O)[C@@H](Cc1ccc(O)cc1)NC(=O)CNC(=O)CNC(=O)CCCCCNC(=O)CN1CCN(CC(=O)O)CCN(CC(=O)O)CCN(CC(=O)O)CC1)[C@H](C)O)C(=O)N[C@H](CC(N)=O)C(=O)N1CCC[C@@H]1C(=O)O` [^68Ga-DOTA-^DTBP-3, metal not drawn] ({DOTA-Ahx}-GG[dY][dT][dF][dH][dW][dH][dR][dL][dN][dP]-OH; N-terminus and C-terminus assumed): the “cell uptake of radiotracer (highest)” value in the series with 4T1 cells (4T1 cells (high TIGIT expression), at 0.5 h, time points 15, 30, 60, 120 min, γ-count) was determined as 8.41 ± 1.22%. Also, the “4T1 cellular uptake with excess unlabeled ^DTBP-3 (blocking)” value with 4T1 cells (4T1 cells, excess unlabeled ^DTBP-3) was “could be blocked”. Moreover, the “cell uptake of radiotracer (highest)” value in the series with A375 cells was 2.56 ± 0.19%. In series [1] (4T1 tumor, 0.5 h after intravenous injection, about 5.55 MBq, n = 3), the “tumor uptake on micro-PET” value was 3.49 ± 0.14. The “tumor uptake on micro-PET, blocking group” value in series [1] (4T1 tumor-bearing mice pretreated with 40-fold excess unlabeled ^DTBP-3 for 0.5 h) is recorded as “no obvious uptake”. Besides, the “time of peak uptake of tumor tissue” value in series [1] (mouse, in vivo) is given as “about 0.5 h”. In addition, in series [2] (0.5 h post-injection), the “tumor-to-blood ratio (biodistribution)” value is reported as “high” and the “tumor-to-muscle ratio (biodistribution)” value is listed as “high”. Besides, the “clearance from the blood” value in series [2] (mouse, in vivo) is given as “quickly cleared”.

(Values after publication PMC10154443, “Peptide-based PET imaging agent of tumor TIGIT expression” (EJNMMI Research, 2023).)
